Laboratory results from patent US20140288044A1, “COMPOSITIONS AND THERAPEUTIC USES OF IKK-RELATED KINASE EPSILON AND TANKBINDING KINASE 1 INHIBITORS” (Alzheimer's Institute of America, Inc., priority 2011, published 2014).
Read-outs that look alike come from different tables or passages of the source.

Experiments:
IKKε = target: T1, IKKε (Homo sapiens, UniProt Q14164); experiment: In-vitro IKKε kinase assay (radiolabelled ATP, filterplate); type: biochemical
T1 construct: His-tag (in-house Sf9 preparation) or GST-tag (purchased Invitrogen preparation); these are alternatives, not both on one protein; host or cells: Sf9 cells
T1 sequence (Q14164 1-716): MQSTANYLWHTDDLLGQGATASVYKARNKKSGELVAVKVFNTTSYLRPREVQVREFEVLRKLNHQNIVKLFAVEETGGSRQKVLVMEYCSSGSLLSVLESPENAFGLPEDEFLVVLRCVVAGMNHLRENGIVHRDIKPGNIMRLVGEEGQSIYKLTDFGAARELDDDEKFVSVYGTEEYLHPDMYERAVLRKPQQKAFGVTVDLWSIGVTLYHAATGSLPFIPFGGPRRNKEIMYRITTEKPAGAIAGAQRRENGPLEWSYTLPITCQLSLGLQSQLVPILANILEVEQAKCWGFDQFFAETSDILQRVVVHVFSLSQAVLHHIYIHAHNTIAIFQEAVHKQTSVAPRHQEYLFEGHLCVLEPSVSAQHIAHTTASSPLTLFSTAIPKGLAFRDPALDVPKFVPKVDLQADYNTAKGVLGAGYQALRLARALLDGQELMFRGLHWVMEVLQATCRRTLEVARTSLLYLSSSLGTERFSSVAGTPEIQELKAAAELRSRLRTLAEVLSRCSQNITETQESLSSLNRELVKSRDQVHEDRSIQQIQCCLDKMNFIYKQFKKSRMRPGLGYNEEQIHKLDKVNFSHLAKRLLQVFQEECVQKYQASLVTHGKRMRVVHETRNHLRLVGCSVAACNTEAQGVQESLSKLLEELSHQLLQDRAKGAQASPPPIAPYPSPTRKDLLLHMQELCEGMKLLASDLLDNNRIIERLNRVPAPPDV
Method in brief: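 His-tagged IKKε from Sf9 cells or GST-tagged IKKε, with myelin basic protein, casein or dephosphorylated casein as substrate and 32 μM ATP (2× Km) plus [γ^33]ATP. "Normal" assay used 0.1 μg/ml enzyme; "sensitized" used 0.015 μg/ml with dephosphorylated casein only. Stopped after 30–45 min with phosphoric acid; P-81 filter counts normalized to DMSO after background subtraction.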

[1] = test system: IKKε-mediated phosphorylation of IRF3; experiment: ELISA for in-situ phosphorylation of IRF3 (phospho-Ser396) in HEK293T cells cotransfected with IRF3 and IKKε; type: cell-based; conditions: Homo sapiens, HEK-293T
Method in brief: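 HEK293T cells cotransfected with IRF3 and IKKε were treated with compound for 20 h, and lysates were assayed by ELISA for phospho-Ser396 IRF3, normalized to DMSO. Viability was checked in parallel by CellTiter-Glo. For TBK1, cells cotransfected with IRF7 and TBK1 were treated overnight and probed by Western blot for phospho-Ser477/Ser479 IRF7.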

[2] = test system: RANTES secretion by prostate cancer DU145 cells; experiment: ELISA to detect secreted RANTES, prostate cancer DU145 cells; type: cell-based; conditions: Homo sapiens, DU-145
Protocol: Prostate cancer DU145 cells were seeded at 20,000 cells/well in a 96-well tissue culture plate. The following day media was removed and replaced with complete media containing IKKε/TBK1 inhibitor (starting concentration 25 μM, 1:3 dilutions, final DMSO 0.05%). Cells were incubated for 20 hours and culture supernatant used to determine secreted RANTES levels using a commercially available ELISA kit (R & D Systems, Minneapolis, Minn.).

[3] = Table 3, in vitro, read-out: IKKε IC50
[4] = 20 h, HEK293T cells, 20 hours, range given from about 1 μM to about 250 nM, read-out: IC50, in-situ IKKε-mediated phosphorylation of IRF3
[5] = Table 3, HEK293T cells in culture, read-out: pIRF3 ELISA IC50
[6] = DU145 cells, 20 hours, read-out: IC50, inhibition of the secretion of RANTES
[7] = Table 3, DU145 cells in culture, read-out: RANTES Secretion IC50
[8] = "sensitized" assay, read-out: IC50, inhibition of the kinase activity of IKKε
[9] = in-vitro IKKε kinase inhibition assays, given as 0.005 μM (5 nM), read-out: IKKε kinase inhibitory activity (IC50 value)

| IC50 (IKKε; [3]) [µM] | IC50 [1, 4] [µM] | IC50 [1, 5] [µM] | IC50 [2, 6] [µM] | IC50 [2, 7] [µM] | IC50 (IKKε; [9]) [µM] | IC50 ([1]; 20 h, HEK293T cells, 20 hours, read-out: IC50, in-situ IKKε-mediated phosphorylation of IRF3) [µM] | SMILES | IC50 (IKKε; [8]) [µM] |
| --- | --- | --- | --- | --- | --- | --- | --- | --- |
| 0.00637 | 0.25 to 1 | 0.265 | 0.02 to 0.06 | 0.0395 |  |  | N#Cc1cc(-c2ccnc(Nc3ccc(CN4CCC4)nc3)n2)ccc1OC1CCOCC1 [Example Compound 47, 5-(2-{[6-(Azetidin-1-ylmethyl)pyridin-3-yl]amino}pyrimidin-4-yl)-2-(tetrahydro-2H-pyran-4-yloxy)benzonitrile] |  |
| 0.00274 | 0.25 to 1 | 0.315 | 0.02 to 0.06 | 0.0522 | < 0.005 |  | COC1CN(Cc2ccc(Nc3nccc(-c4ccc(OC5CCOCC5)c(C#N)c4)n3)cn2)C1 [Example Compound 48, 5-[2-({6-[(3-Methoxyazetidin-1-yl)methyl]pyridin-3-yl}amino)pyrimidin-4-yl]-2-(tetrahydro-2H-pyran-4-yloxy)benzonitrile] | < 0.005 |
| 0.00611 | 0.25 to 1 | 0.363 | 0.02 to 0.06 | 0.0558 |  |  | COCCOC1CN(Cc2ccc(Nc3nccc(-c4ccc(OC5CCOCC5)c(C#N)c4)n3)cn2)C1 [Example Compound 49, 5-{2-[(6-{[3-(2-Methoxyethoxy)azetidin-1-yl]methyl}pyridin-3-yl)amino]pyrimidin-4-yl}-2-(tetrahydro-2H-pyran-4-yloxy)benzonitrile] |  |
| 0.00191 |  | 0.0326 | 0.02 to 0.06 | 0.021 | < 0.005 | < 0.1 | N#Cc1cc(-c2ccnc(Nc3ccc(N4CCOCC4)nc3)n2)ccc1NC(=O)C1CC1 [Example Compound 141, N-[2-Cyano-4-(2-{[6-(morpholin-4-yl)pyridin-3-yl]amino}pyrimidin-4-yl)phenyl]cyclopropanecarboxamide] | < 0.005 |
